Where “and” joins values, the source holds several entries; their conditions need not be identical. Identical values can stand only once. One block for each compound: values may come before it.
Experiments:
[1] = Degradation Example 5: oxidation with hydrogen peroxide, monitored by HPLC; assay type: physicochemical; conditions: after 1 hour at RT
Method: Thus, the cyclic boranophosphate 6-chloropurine-1-β-D-ribofuranoside-3′,5′-cyclic boranophosphate, Rp-isomer (Rp-6-Cl-cPuMPB, example 42) together with the corresponding phosphorothioate 6-chloropurine-1-β-D-ribofuranoside-3′,5′-cyclic phosphorothioate, Sp-isomer (Sp-6-Cl-cPuMPS, Biolog) as a control were treated repeatedly with μl doses of 30% aqueous hydrogen peroxide (Merck). During one hour, oxidative degradation was monitored by HPLC (RP-18, 15 Vol.-% acetonitrile, 20 mM triethylammonium formate buffer, pH 6.5, 2 ml/min., UV 263 nm) and corresponding peak areas were recorded, integrated and compared (Tab. 3).

[2] = Degradation Example 3: oxidation with hydrogen peroxide, monitored by HPLC; assay type: physicochemical; conditions: after 90 min. at RT
Method: Thus, 0.1 μmol of the Rp-isomer of 8-(4-chlorophenylthio)-2′-O-methyladenosine-3′,5′-cyclic boranophosphate (Rp-8-pCPT-2′-O-Me-cAMPB, example 44), dissolved in 300 μl of water, was treated stepwise with 2 μl portions of 30% aqueous hydrogen peroxide solution (Merck). The oxidation process was monitored again by reversed phase HPLC (RP-18, 30 Vol.-% acetonitrile, 20 mM triethylammonium formate buffer, pH 8.3, 2 ml/min, UV 282 nm). As a control, the corresponding cyclic nucleotide with phosphorothioate modification (Sp-8-pCPT-2′-O-Me-cAMPS, Biolog) was added. In summary, 20 μl peroxide, were applied.

[3] = Degradation Example 7: oxidation with hydrogen peroxide, monitored by HPLC; assay type: physicochemical; conditions: for oxidation by peroxide: 5 portions of 30% H2O2; for HPLC Area %: hydrogen peroxide
Method: The degradation experiment was monitored by HPLC (RP-18, 15 Vol.-% acetonitrile, 20 mM triethylammonium formate buffer, pH 6.5, 1 ml/min., UV 270 nm) and peak areas were recorded.

[4] = Degradation Example 2: oxidation with hydrogen peroxide, monitored by HPLC; assay type: physicochemical
Method: Thus, 0.05 μmol of the Rp-isomer of 8-(4-chlorophenylthio)adenosine-3′,5′-cyclic boranophosphate (Rp-8-pCPT-cAMPB, example 9), was treated stepwise with 5 μl portions of 30% aqueous hydrogen peroxide solution (Merck) every 30 min. The oxidation process was monitored by reversed phase HPLC (RP-18, 25 Vol.-% acetonitrile, 20 mM triethylammonium formate buffer, pH 6.1, 2 ml/min, UV 280 nm). As a control the corresponding cyclic nucleotide with phosphorothioate modification (Sp-8-pCPT-cAMPS, Biolog) was added. In summary, 15 μl peroxide, were applied.

[5] = target: protein kinase A type I alpha holoenzyme (Homo sapiens, UniProt P10644); assay: Standard photometric (Cook) assay with protein kinase A type I alpha holoenzyme; assay type: biochemical; conditions: holoenzyme RIα
Chain of protein kinase A type I alpha holoenzyme (P10644 whole entry): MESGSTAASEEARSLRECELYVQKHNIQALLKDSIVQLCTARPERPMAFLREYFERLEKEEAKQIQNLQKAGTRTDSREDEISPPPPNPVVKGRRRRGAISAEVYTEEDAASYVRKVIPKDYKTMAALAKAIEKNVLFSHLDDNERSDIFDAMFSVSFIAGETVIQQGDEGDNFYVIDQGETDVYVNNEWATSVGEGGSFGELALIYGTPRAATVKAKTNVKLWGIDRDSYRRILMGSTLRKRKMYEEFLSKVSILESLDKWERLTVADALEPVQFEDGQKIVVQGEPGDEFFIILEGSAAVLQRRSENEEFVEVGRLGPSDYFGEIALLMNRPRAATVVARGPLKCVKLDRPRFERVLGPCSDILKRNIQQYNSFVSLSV
From the text: In a first experiment, the biological activity of the Rp- and Sp-isomer of 8-bromoadenosine-3′,5′-cyclic boranophosphate (examples 1 and 2) has been tested with the holoenzyme of protein kinase A type I alpha (FIGS. 3 and 4) using a standard photometric assay (Cook, P. F.; Neville, M. E., Jr.; Vrana, K. E.; Hartl, F. T. and Roskoski, R., Jr., Biochemistry 21, 5794-5799 (1982)).
As a control, two boranophosphate analogues with a 2′-O-methyl modification (Rp-2′-O-Me-cAMPB and Sp-2′-O-Me-cAMPB, examples 7 & 8) have been tested by the same type of assay with protein kinase A type I alpha as well.
FIG. 5 depicts the activity overview of four different cyclic boranophosphate analogues with protein kinase A type I alpha holoenzyme. 9108: Sp-2′-O-Me-cAMPB; 9109: Rp-2′-O-Me-cAMPB; 9110: Sp-8-Br-cAMPB; 9111: Rp-8-Br-cAMPB; controls: B 001: Rp-8-Br-cAMPS. Control: cAMP. “Cook Assay” with Holoenzyme RIα.

[6] = target: T1, PDE IV (A4B) (Homo sapiens, UniProt P27815); assay: Stability against PDE IV, HPLC; assay type: in vitro ADME; conditions: human, Houslay lab), pH 7.2, read-out: half life of hydrolysis
T1 construct: Houslay lab, Glasgow/Scotland (obtained from another laboratory)
T1 sequence (P27815 whole entry): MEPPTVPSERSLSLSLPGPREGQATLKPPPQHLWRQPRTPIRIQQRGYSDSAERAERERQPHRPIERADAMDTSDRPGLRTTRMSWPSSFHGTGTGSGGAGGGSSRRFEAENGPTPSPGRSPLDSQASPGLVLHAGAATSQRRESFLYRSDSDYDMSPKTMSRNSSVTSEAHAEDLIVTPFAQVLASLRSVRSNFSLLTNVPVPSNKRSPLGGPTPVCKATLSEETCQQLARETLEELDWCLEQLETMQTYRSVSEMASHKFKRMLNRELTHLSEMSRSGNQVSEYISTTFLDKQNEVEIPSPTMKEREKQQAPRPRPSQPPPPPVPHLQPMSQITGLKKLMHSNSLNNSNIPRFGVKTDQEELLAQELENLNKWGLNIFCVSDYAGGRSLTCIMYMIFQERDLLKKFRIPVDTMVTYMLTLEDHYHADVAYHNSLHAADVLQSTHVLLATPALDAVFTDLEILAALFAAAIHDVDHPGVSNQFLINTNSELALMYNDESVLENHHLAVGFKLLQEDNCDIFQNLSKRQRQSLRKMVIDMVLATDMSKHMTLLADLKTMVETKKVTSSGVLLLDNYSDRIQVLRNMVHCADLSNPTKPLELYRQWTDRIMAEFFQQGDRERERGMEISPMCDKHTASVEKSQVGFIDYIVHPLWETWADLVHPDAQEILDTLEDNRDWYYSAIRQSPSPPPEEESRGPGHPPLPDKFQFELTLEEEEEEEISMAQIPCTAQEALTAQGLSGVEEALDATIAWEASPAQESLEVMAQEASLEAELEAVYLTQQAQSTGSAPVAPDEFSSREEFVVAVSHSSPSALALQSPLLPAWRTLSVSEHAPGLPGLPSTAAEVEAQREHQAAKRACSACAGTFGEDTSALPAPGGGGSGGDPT
Method: Next, stability of the disclosed boranophosphates against PDE IV (A4B, Houslay lab, Glasgow/Scotland) was tested in similar experiments as described above.

[7] = Degradation Example 1: oxidation with hydrogen peroxide, monitored by HPLC; assay type: physicochemical; conditions: after further addition of 10 μl of 30% H2O2, two hours at RT
From the text: In order to check out the stability of the boranophosphates described in this invention towards oxidising conditions in comparison to the corresponding phosphorothioates, 0.1 μmol of the sodium salts of each, Rp-8-bromoadenosine-3′,5′-cyclic boranophosphate (Rp-8-Br-cAMPB, example 1), Sp-8-bromoadenosine-3′,5′-cyclic boranophosphate (Sp-8-Br-cAMPB, example 2), Rp-8-bromoadenosine-3′,5′-cyclic phosphorothioate (Rp-8-Br-cAMPS, Biolog) and Sp-8-bromoadenosine-3′,5′-cyclic phosphorothioate (Sp-8-Br-cAMPS, Biolog) were dissolved in 100 μl of eluent and the mixture was analyzed by HPLC (RP-18, 11% acetonitrile, 20 mM triethylammonium formate buffer, pH 6.1, 1.5 ml/min, UV 258 nm). The following elution profile was recorded: Rp-8-Br-cAMPS (5:13 min.)<Sp-8-Br-cAMPS (7:23 min.)<Sp-8-Br-cAMPB (9:13 min.)<Rp-8-Br-cAMPB ([…].).
Subsequently, aqueous hydrogen peroxide (Merck) was added in small portions while the stability of the four compounds was permanently monitored over time.
10 μl of H2O2 (0.3%) as well as 10 μl of 3% H2O2 were added to no effect.

[8] = target: T2, protein kinase G I α (Homo sapiens, UniProt Q13976); assay: Protein kinase G I alpha activation, phosphotransferyl assay; assay type: biochemical; conditions: 10 nM, 100 nM and 1 μM
T2 sequence (Q13976 1-671): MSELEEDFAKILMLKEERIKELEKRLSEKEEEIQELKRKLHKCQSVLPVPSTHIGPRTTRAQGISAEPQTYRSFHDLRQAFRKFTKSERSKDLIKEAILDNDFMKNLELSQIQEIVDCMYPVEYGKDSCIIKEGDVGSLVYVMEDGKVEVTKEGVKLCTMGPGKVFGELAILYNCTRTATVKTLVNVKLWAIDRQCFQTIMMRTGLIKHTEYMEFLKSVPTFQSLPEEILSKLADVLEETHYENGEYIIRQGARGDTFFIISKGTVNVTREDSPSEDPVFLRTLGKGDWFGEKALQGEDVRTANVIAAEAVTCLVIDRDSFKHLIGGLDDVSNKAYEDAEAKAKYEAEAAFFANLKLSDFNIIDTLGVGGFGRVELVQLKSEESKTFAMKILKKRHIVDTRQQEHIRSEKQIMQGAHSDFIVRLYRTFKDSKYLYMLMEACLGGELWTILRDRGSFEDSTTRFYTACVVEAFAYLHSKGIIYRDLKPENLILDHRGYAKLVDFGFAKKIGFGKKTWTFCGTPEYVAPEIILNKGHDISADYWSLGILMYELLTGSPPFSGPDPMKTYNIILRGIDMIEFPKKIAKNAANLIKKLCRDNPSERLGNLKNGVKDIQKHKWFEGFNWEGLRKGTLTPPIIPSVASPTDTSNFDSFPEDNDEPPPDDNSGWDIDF
From the text: Next, the activity profile of some cyclic boranophosphates disclosed in this invention has also been investigated on protein kinase G I α (FIGS. 8 and 9). Potential activatory potential towards the enzyme has been determined by a standard phosphotransferyl assay protocol according to Dostmann et al. (Dostmann, W. R.; Nickl, C.; Thiel, S.; Tsigelny, I.; Frank, R.; and Tegge, W. J., Pharmacol. Ther., 82, 373-387 (1999). FIG. 8 depicts the activity (μmol×min^−1×mg^−1) overview of six different cyclic boranophosphate analogues with protein kinase G type I at 10 nM, 100 nM and 1 μM. BLG-9108: […]; BLG-9110: Sp-8-Br-cAMPB; BLG-9111: Rp-8-Br-cAMPB; BLG-9112: Sp-8-Br-cGMPB; BLG-9113: Rp-8-Br-cGMPB; control: cyclic GMP.

[9] = system: PDE 1 from bovine heart; assay: Resistance towards phosphodiesterase: incubation with PDE 1 from bovine heart, HPLC; conditions: PDE 1, bovine heart
Method: For this purpose 0.1 μmol of Rp-8-bromoadenosine-3′,5′-cyclic boranophosphate (example 1) and Sp-8-bromoadenosine-3′,5′-cyclic boranophosphate […] dissolved in TRIS buffer pH 7.2 containing calcium chloride and calmodulin and incubated with PDE type I from bovine brain (Sigma-Aldrich) at 37° C. Activity of the enzyme was checked by hydrolysis of cyclic AMP. Stability was monitored by HPLC (RP-18, 11 Vol.-% propanol-2, 20 mM TEAF buffer, pH 6.8, 1 ml/min., UV 264 nm). […] This strategy of testing PDE performance was applied accordingly in degradation examples 10 and 11.
Thus, Rp-8-Br-cAMPB (example 1) and Sp-8-Br-cAMPS (Biolog, Bremen/Germany) were incubated with PDE 1 from bovine heart (Sigma-Aldrich) and monitored by HPLC as described above.
Rp-2′-O-Me-cAMPB (example 7) and Sp-2′-O-Me-cAMPS (Biolog, Bremen/Germany).

Compound: 6-Chloropurine-1-β-D-ribofuranoside-3′,5′-cyclic boranophosphate, Rp-isomer [Rp-6-Cl-cPuMPB]
- peak area, % of the original area [1]: 93%

Compound: CO[C@H]1C2OP(O)(=S)OC[C@H]2O[C@H]1n1c(Sc2ccc(Cl)cc2)nc2c(N)ncnc21 (stereo partly drawn) [Sp-8-pCPT-2′-O-Me-cAMPS, reference compound]
- peak area, % of the original area [2]: completely degraded

- oxidation by peroxide [3]: considerably higher resistance
- HPLC Area % ([3]; Time 0 min): 100%
- HPLC Area % ([3]; Time 10 min): 99%
- HPLC Area % ([3]; Time 20 min): 98%
- HPLC Area % ([3]; Time 34 min): 96%
- HPLC Area % ([3]; Time 65 min): 91%
- HPLC Area % ([3]; Time 81 min): 84%
- HPLC Area % ([3]; Time 92 min): 78%
- HPLC Area % ([3]; Time 98 min): 79%
Compound: B[PH]1(O)OC[C@H]2O[C@@H](n3ccc(N)nc3=O)C(O)[C@@H]2O1 (stereo partly drawn) [Rp-cCMPB, Cytidine-3′,5′-cyclic boranophosphate, Rp-isomer]

- peak area, % of the original area [2]: 50%
Compound: B[PH]1(O)OC[C@H]2O[C@@H](n3c(Sc4ccc(Cl)cc4)nc4c(N)ncnc43)C(OC)[C@@H]2O1 (stereo partly drawn) [Rp-8-pCPT-2′-O-Me-cAMPB, 8-(4-Chlorophenylthio)-2′-O-methyladenosine-3′,5′-cyclic boranophosphate, Rp-isomer]

Compound: O[C@@H]1[C@@H]2OP(O)(=S)OC[C@H]2O[C@H]1n1cnc2c(Cl)ncnc21 (single isomer, unassigned) [Sp-6-Cl-cPuMPS, 6-chloropurine-1-β-D-ribofuranoside-3′,5′-cyclic phosphorothioate, Sp-isomer, reference compound]
- degraded [1]: 37%

- HPLC Area % ([4]; Time 0.00 h): 100%
- HPLC Area % ([4]; Time 0.50 h): 87.51%
- HPLC Area % ([4]; Time 1.00 h): 82.89%
- HPLC Area % ([4]; Time 1.50 h, RT): 79% and 79.25%
- HPLC Area % ([4]; Time 18.00 h): 30% and 29.56%
Compound: B[PH]1(O)OC[C@H]2O[C@@H](n3c(Sc4ccc(Cl)cc4)nc4c(N)ncnc43)C(O)[C@@H]2O1 (stereo partly drawn) [Rp-8-pCPT-cAMPB, 8-(4-Chlorophenylthio)adenosine-3′,5′-cyclic boranophosphate, Rp-isomer]

Compound: 2′-O-Methyladenosine-3′,5′-cyclic boranophosphate, Sp-isomer [Sp-2′-O-Me-cAMPB]
- effect on protein kinase A type I alpha holoenzyme [5]: neither Rp- nor Sp-2′-O-Me-cAMPB did modulate the kinase in any way

Compound: Nc1ncnc2c1ncn2[C@@H]1O[C@@H]2COP(=O)(O)O[C@H]2[C@H]1O [cAMP, cyclic adenosine-3′,5′-monophosphate, reference compound]
- half-life [6]: 5 min

Compound: Nc1ncnc2c1nc(Sc1ccc(Cl)cc1)n2[C@@H]1O[C@@H]2COP([O-])(=S)O[C@H]2[C@H]1O.[Na+] (stereo partly drawn) [Sp-8-pCPT-cAMPS, reference compound]
- HPLC Area % ([4]; Time 0.00 h): 100%
- HPLC Area % ([4]; Time 0.50 h): 81.7%
- HPLC Area % ([4]; Time 1.00 h): 57.47%
- HPLC Area % ([4]; Time 1.50 h, RT): 45.71%
- HPLC Area % ([4]; Time 18.00 h): completely vanished
- HPLC Area % ([4]; Time 18.00 h, listed as Sp-8-pCPT-CAMPS): 0%
- degraded ([4]; after 1.5 hours at RT): more than 50%

Compound: Nc1ccn([C@@H]2O[C@@H]3COP(O)(=S)O[C@H]3[C@H]2O)c(=O)n1 (single isomer, unassigned) [Sp-cCMPS, cytidine-3′,5′-cyclic phosphorothioate, Sp-isomer, reference compound]
- oxidation by peroxide [3]: rapidly oxidized
- HPLC Area % ([3]; Time 0 min): 100%
- HPLC Area % ([3]; Time 10 min): 94%
- HPLC Area % ([3]; Time 20 min): 85%
- HPLC Area % ([3]; Time 34 min): 69%
- HPLC Area % ([3]; Time 65 min): 46%
- HPLC Area % ([3]; Time 81 min): 23%
- HPLC Area % ([3]; Time 92 min): 14%
- HPLC Area % ([3]; Time 98 min): 13%

Compound: Nc1ncnc2c1nc(Br)n2C1OC2COP(O)(=S)OC2C1O (stereo not drawn) [Rp-8-Br-cAMPS, Rp-8-bromoadenosine-3′,5′-cyclic phosphorothioate, reference compound]
- HPLC signal after oxidation [7]: completely vanished

- activation of protein kinase G [8]: activated the kinase
Compound: 8-Bromoguanosine-3′,5′-cyclic boranophosphate, Rp-isomer [Rp-8-Br-cGMPB]

Compound: COC1C2OP(O)(=S)OCC2OC1n1cnc2c(N)ncnc21 (stereo not drawn) [Sp-2′-O-Me-cAMPS, reference compound]
- half life of degradation [9]: 1800 min
